# Read-outs that look alike come from different tables or passages of the source.
# Experiments:
# P-gp = tested on: P-gp; parameters: method as in PMID 12848773, PMID 18987624; settings: digoxin given intravenously and orally; cited from earlier work
# CYP = settings: cited from earlier work
# [1] = cited from earlier work
# clinical = settings: for GMR of dose-normalized AUC0-∞, microdose vs therapeutic dose: edoxaban 50 μg vs 60 mg; for AUC: AUC0-∝
# Protocol: (§1) The study was an open-label, two-period, one-sequence DDI trial in healthy volunteers to assess the impact of clarithromycin on the pharmacokinetics of 60 mg edoxaban, given as a tablet, and the effect of clarithromycin on apixaban (25 μg), edoxaban (50 μg), and rivaroxaban (25 μg) administered as an oral microdose cocktail. Concurrently, the effect of clarithromycin on CYP3A activity was quantified by means of an oral midazolam microdose (30 μg) (Fig. 1).
# (§2) CYP3A4 activity was quantified using a microdose of midazolam administered as an oral solution, which was administered directly before administering the FXaI [19, 20]. Clarithromycin was dosed to inhibition steady-state (7-day treatment prior to evaluation of any perpetrator effects and treatment continued until last blood sampling) and administered at a dose of 500 mg b.i.d. to ensure reliable inhibition of hepatic CYP3A4 (mechanism-based inhibition), while maximum CYP3A4 inhibition in the gut wall was expected to occur earlier. Single-dose pharmacokinetics of the FXaI were assessed at baseline and on day 8 (microdosed FXaI cocktail) and day 9 (edoxaban 60 mg) of clarithromycin treatment.
# (§3) Venous plasma samples for pharmacokinetic FXaI analyses were collected before and 0.25, 0.5, 0.75, 1, 1.5, 2, 2.5, 3, 3.5, 4, 5, 6, 8, 10, 12, 24 (last sampling after microdoses), and 48 h (last sampling for edoxaban 60 mg) after drug administration. Midazolam pharmacokinetics were assessed using a limited sampling strategy with sampling at 2, 2.5, 3, and 4 h post dose. All samples were processed within 20 min, and plasma was stored at ≤ – 20 °C until analysis. Coagulation effects (international normalized ratio (INR) and activated partial thromboplastin time (aPTT)) were assessed at expected FXaI peak plasma concentrations (3 h post dose) in the accredited central laboratory of the hospital.
# (§4) Apixaban, edoxaban, midazolam, and rivaroxaban plasma concentrations were quantified using validated highly sensitive ultra-performance liquid chromatography–tandem mass spectrometry (UPLC-MS/MS) methods with accuracy and precision values of less than or equal to ± 15 % [22, 23]. The corresponding lower limits of quantification were 1 pg/ml for microdosed midazolam, 2.5 pg/ml for all microdosed FXaI, and 1 ng/ml for regular doses of edoxaban.
# (§5) Non-compartmental analyses of the FXaI and midazolam pharmacokinetics were performed using Phoenix WinNonlin 8.3 (Certara, Inc., Princeton, NJ, USA). Linear modelling of AUC ratios was done using the R software environment in version 4.0.4 (R Foundation for Statistical Computing, Vienna, Austria). Maximum plasma concentration (Cmax) and the time to reach Cmax (Tmax) were directly obtained from the pharmacokinetic data. The area under the concentration-time curve from 0 to infinity (AUC0-∞) was determined using the log-linear trapezoidal rule and by adding the extrapolated part until infinity. Half-life (t1/2) is calculated as ln(2)/λz , where the elimination rate constant λz was estimated using log-linear regression of the elimination phase. The apparent oral clearance (Cl/F) was calculated as dose/AUC0--∞ . CYP3A4 activity was determined using a limited sampling strategy using the midazolam AUC2-4 as described earlier. […] Exposure changes are described by evaluating the geometric mean ratio (paired t-test on log-transformed values) of AUC0-∞ and Cmax at baseline and under the influence of steady-state clarithromycin (90 % CI). The AUC2-4 of midazolam was evaluated at multiple time points using a repeated-measures analysis of variance after logarithmic transformation.
# [2] = cited from earlier work; remark: listed apart in the source
# CYP3A = CYP3A activity by oral midazolam microdose (AUC2-4, limited sampling); type: in vivo, human (healthy volunteers); settings: human, plasma, 30 ug, oral microdose 30 μg
# Protocol: as §1
# CYP3A4 activity was quantified using a microdose of midazolam administered as an oral solution, which was administered directly before administering the FXaI [19, 20]. […] Single-dose pharmacokinetics of the FXaI were assessed at baseline and on day 8 (microdosed FXaI cocktail) and day 9 (edoxaban 60 mg) of clarithromycin treatment.
# as §3, with “All samples were processed within 20 min, and plasma was stored at ≤ – 20 °C until analysis.” left out, “hospital. […]” for “hospital.”
# [3] = tested on: coagulation markers (aPTT, INR); assay: Coagulation effects (aPTT, INR) 3 h post dose; type: in vivo, human (healthy volunteers); settings: for INR, mean / aPTT, mean: 180 min after administration
# Protocol: as §3
# [4] = Pharmacokinetics of a single 60 mg edoxaban dose before and during clarithromycin; settings: for Tmax / Vd: geometric mean; for Vd: Vz
# Protocol: as §1, §2, §3, §4, §5
# [5] = Safety: adverse events in the trial; type: in vivo, human (healthy volunteers); settings: while taking clarithromycin 500 mg b.i.d.; 12 participants
# [6] = parameters: method as in PMID 32511684; settings: during clarithromycin compared to azithromycin, patients mainly anticoagulated with FXaI; cited from earlier work
# [7] = human, in vivo, po, geometric mean
# [8] = oral microdose cocktail, at clarithromycin steady-state
# [9] = oral microdose cocktail, baseline
# [10] = regular apixaban dose with clarithromycin, ref 24 (Garonzik et al. 2019)
# [11] = edoxaban 60 mg with clarithromycin
# [12] = oral microdose cocktail, clarithromycin steady state vs baseline
# [13] = edoxaban 60 mg, clarithromycin steady state vs baseline
# [14] = human, in vivo, 60 mg, edoxaban 60 mg, at clarithromycin steady-state
# [15] = human, in vivo, 60 mg, edoxaban 60 mg, baseline
# [16] = regular rivaroxaban dose with clarithromycin, ref 16 (Mueck et al. 2013)
structure (smiles),measurement,setting,value
C[C@H]1O[C@@H](O[C@H]2[C@@H](O)C[C@H](O[C@H]3[C@@H](O)C[C@H](O[C@H]4CC[C@@]5(C)[C@H](CC[C@@H]6[C@@H]5C[C@@H](O)[C@]5(C)[C@@H](C7=CC(=O)OC7)CC[C@]65O)C4)O[C@@H]3C)O[C@@H]2C)C[C@H](O)[C@@H]1O [digoxin],reduction of renal tubular secretion by oral clarithromycin,P-gp,15%
"COc1ccc(-n2nc(C(N)=O)c3c2C(=O)N(c2ccc(N4CCCCC4=O)cc2)CC3)cc1 [Apixaban, apixaban]",CYP contribution to overall clearance,CYP,21%
same,exposure increase caused by verapamil or diltiazem,[1],approximately 40%
same,exposure change with ketoconazole,[1]; therapeutic dose of apixaban,99%
same,"Cl / F, geometric mean","clinical; human, in vivo, po",4.9 L/h
same,"Vz, geometric mean","clinical; human, in vivo, po",52 L
same,"t1/2, geometric mean","clinical; human, in vivo, po",7.1 h
same,Cmax,clinical; [7],0.653 ng/mL
same,"Tmax, geometric mean",clinical; [8],2.23 h
same,"Tmax, geometric mean",clinical; [9],1.9 h
same,increase of concentrations (exposure) by clarithromycin,[2]; apixaban,60%
same,AUC0-∝ geometric mean ratio,[2]; [10],1.60
same,Cmax geometric mean ratio,[2]; [10],1.30
"Cc1ncc2n1-c1ccc(Cl)cc1C(c1ccccc1F)=NC2 [Midazolam, midazolam]",AUC,CYP3A; at clarithromycin steady-state,0.672 ng·h/mL
same,AUC,CYP3A; baseline,0.107 ng·h/mL
"CN1CCc2nc(C(=O)N[C@@H]3C[C@@H](C(=O)N(C)C)CC[C@@H]3NC(=O)C(=O)Nc3ccc(Cl)cn3)sc2C1 [Edoxaban, edoxaban]","INR, change during clarithromycin, GMR",[3]; edoxaban 60 mg,1.39
same,"INR, mean",[3]; edoxaban 60 mg alone,1.23
same,"aPTT, mean",[3]; edoxaban 60 mg alone,33.4
same,"INR, mean",[3]; [11],1.43
same,"aPTT, mean",[3]; [11],40.2
same,contribution of CYP3A to the overall metabolic clearance,CYP,1%
same,effect of selective inhibition of CYP3A (by voriconazole) on pharmacokinetics,[1],does not affect its pharmacokinetics
same,exposure change with ketoconazole,[1]; therapeutic dose of edoxaban,87%
same,"GMR of dose-normalized AUC0-∞, microdose vs therapeutic dose",clinical; at baseline,1.08
same,"GMR of dose-normalized AUC0-∞, microdose vs therapeutic dose",clinical; at steady-state of clarithromycin,1.43
same,AUC,"clinical; human, in vivo, po, geometric mean, oral microdose cocktail (25 μg apixaban, 50 μg edoxaban, 25 μg rivaroxaban), baseline",1.05 ng·h/mL
same,AUC,"clinical; human, in vivo, po, geometric mean, oral microdose cocktail, at steady-state clarithromycin (day 8)",2.13 ng·h/mL
same,Cmax,"clinical; human, in vivo, po, geometric mean, oral microdose cocktail, at steady-state clarithromycin",0.341 ng/mL
same,Cmax,"clinical; human, in vivo, po, geometric mean, oral microdose cocktail, baseline",0.153 ng/mL
same,Tmax,"clinical; human, in vivo, po, Tmax, geometric mean, oral microdose cocktail, at clarithromycin steady-state",1.72 h
same,Tmax,"clinical; human, in vivo, po, Tmax, geometric mean, oral microdose cocktail, baseline",1.17 h
same,"Cl / F, geometric mean",clinical; [8],23 L/h
same,"Vz, geometric mean",clinical; [8],217 L
same,"Cl / F, geometric mean",clinical; [9],48 L/h
same,"Vz, geometric mean",clinical; [9],399 L
same,AUC0-∝ geometric mean ratio,clinical; [12],2.03
same,Cmax geometric mean ratio,clinical; [12],2.22
same,increase of edoxaban exposure by clarithromycin,[4]; edoxaban 60 mg,53%
same,"Cl / F, geometric mean","[4]; edoxaban 60 mg, at clarithromycin steady-state",34 L/h
same,"Cmax, geometric mean","[4]; edoxaban 60 mg, at steady-state clarithromycin",258 ng/mL
same,"Cl / F, geometric mean","[4]; edoxaban 60 mg, baseline",51 L/h
same,AUC0-∝ geometric mean ratio,[4]; [13],1.53
same,Cmax geometric mean ratio,[4]; [13],1.27
same,Cmax,"[4]; human, in vivo, 60 mg",203 ng/mL
same,Tmax,[4]; [14],1.67 h
same,Tmax,[4]; [15],1.27 h
same,Vd,[4]; [14],361 L
same,Vd,[4]; [15],594 L
same,AUC,"[4]; human, in vivo, po, 60 mg",1170 ng·h/mL
"O=C(NC[C@H]1CN(c2ccc(N3CCOCC3=O)cc2)C(=O)O1)c1ccc(Cl)s1 [Rivaroxaban, rivaroxaban]",CYP contribution to overall clearance,CYP,32%
same,exposure increase caused by verapamil or diltiazem,[1],approximately 40%
same,exposure change with ketoconazole,[1]; therapeutic dose of rivaroxaban,158%
same,"Cl / F, geometric mean","clinical; human, in vivo, po",9.0 L/h
same,Tmax,"clinical; human, in vivo, po",0.917 h
same,"Vz, geometric mean","clinical; human, in vivo, po",85 L
same,"t1/2, geometric mean","clinical; human, in vivo, po",6.3 h
same,Cmax,clinical; [7],0.65 ng/mL
same,AUC0-∝ geometric mean ratio,[2]; [16],1.54
same,Cmax geometric mean ratio,[2]; [16],1.40
same,increase of concentrations (exposure) by clarithromycin,[2]; rivaroxaban,50–100%
same,magnitude of drug interaction (exposure increase) with clarithromycin,[2]; therapeutic doses of rivaroxaban,54%
CC[C@H]1OC(=O)[C@H](C)[C@@H](O[C@H]2C[C@@](C)(OC)[C@@H](O)[C@H](C)O2)[C@H](C)[C@@H](O[C@@H]2O[C@H](C)C[C@H](N(C)C)[C@H]2O)[C@](C)(OC)C[C@@H](C)C(=O)[C@H](C)[C@@H](O)[C@]1(C)O [clarithromycin],"adverse event dysgeusia, number of participants",[5],9
same,increase of the risk of hospital admission due to major bleeding events,[6],71%

# — PMC11266212, “Effect of Clarithromycin, a Strong CYP3A and P-glycoprotein Inhibitor, on the Pharmacokinetics of Edoxaban in Healthy Volunteers and the Evaluation of the Drug Interaction with Other Oral Factor Xa Inhibitors by a Microdose Cocktail Approach” (Cardiovascular Drugs and Therapy, 2023)
